Assay results as given in patent US20100216160A1, “METHOD FOR THE SCREENING […] ACTIVITY-MODULATING AGENTS AND MEANS FOR CARRYIING OUT SAID METHOD” (CYTOMICS SYSTEMS, priority 2005, published 2010).
Residues, ends and D or L forms follow the SMILES beside them. *: point of attachment. Cbz = O=C(OCc1ccccc1)*

Tests used:
Type in all cases: cell-based, Saccharomyces cerevisiae
[1] = test system: proteasome of yeast cells (CYS344 strain, mAG-p21[6KR]^WAF1/Cip1 fusion protein); experiment: Degradation of mAG-p21[6KR]WAF1/Cip1 fusion protein in CYS344 yeast cells, epifluorescence microscopy; settings: 50 μM MG132 added with 2% glucose after 120 minutes galactose, 0, 60, 120, 180 minutes after glucose
Procedure: The yeast cells of the CYS344 strain were cultured in minimal medium in the presence of galactose as a carbon source for 120 minutes.
(§1) At the end of these 120 minutes, 2% glucose was added to the culture, in the presence and in the absence of 50 μM of a known proteasome inhibitor, the MG132.
The cells were observed using an epifluorescence microscope (fluorescent microscope Nikon Eclipse fitted with an Omega XF116 filter). All the pictures were saved on a Hamamastu® camera using similar settings, then analyzed with the LUCIA G software, immediately before adding glucose (0 minute), and 60, 120 and 180 minutes (60, 120, 180 minutes) following the addition of glucose. The presence of MG132 in the culture is indicated by MG132″.

[2] = test system: proteasome of the recombinant yeast cells (CYS343 strain, mAG-p21^WAF1/Cip1 fusion protein); experiment: Degradation of mAG-p21WAF1/Cip1 fusion protein in CYS343 yeast cells, immunoblotting (Western blotting); settings: 50 μM MG132 added with 2% glucose after 120 minutes galactose, 30, 60, 120 and 150 minutes after glucose
Procedure: (§2) The degradation of the fusion proteins comprising p21^WAF1/Cip1 or p21[6KR]^WAF1/Cip1 fused with mAG by the proteasome of the recombinant yeast cells of CYS 344 and CYS 343 strains was controlled by an immunoblotting technique, in the presence or in the absence of a proteasome inhibitor, the Mg132 compound.
(§3) All the yeast strains used were cultured and analyzed in a similar way.
(§4) The cells were cultured in minimal medium in the presence of galactose as a carbon source for 120 minutes.
(§5) At the end of these 120 minutes, 2% glucose was added to the culture, in the presence and in the absence of 50 μM of a known proteasome inhibitor, the Mg 132.
FIG. 3B illustrates the results obtained with the CYS343 recombinant yeast strain. Total proteins were prepared before adding galactose (0), 60 and 120 minutes following the addition of galactose (+galactose 0, 60, 120) and 30, 60, 120 and 150 minutes (+glucose, 30, 60, 120, 150) following the addition of glucose.
(§6) These proteins were analyzed by immunoblotting technique (“Western blotting”) using an antibody that recognized the p21^WAF1/Cip1 part of the fusion proteins (noted “mAG-p21^WAF1/Cip1” or “mAG-p21[6KR]^WAF1/Cip1” on FIG. 3).
(§7) The presence of MG132 in the culture is indicated by “+MG132” on FIG. 3. […]

[3] = test system: proteasome of yeast cells (CYS344 strain, mAG-p21[6KR]^WAF1/Cip1 fusion protein); experiment: Flow cytometric quantification (FACS) of fluorescence of mAG-p21[6KR]WAF1/Cip1 fusion protein in CYS344 yeast cells; settings: 50 μM MG132 added with 2% glucose after 120 minutes galactose, time D1h, D2h, D3h
Procedure: (§8) The yeast cells were cultured in the presence or in the absence of the MG132 proteasome inhibitor.
(§9) All the cells were cultured in minimal medium in the presence of galactose as a carbon source for 120 minutes.
as §1
(§10) The fluorescence emitted by the cells was quantified using a FacsCalibur flow cytometer (Beckton-Dickinson), immediately before adding galactose (I0), 1 and 2 hour(s) following the addition of galactose (I1 and I2) and 1, 2 and 3 hours (D1, D2 and D3) following the addition of glucose. The presence of Mg132 in the culture is indicated by “+MG132”. The fluorescence is expressed in arbitrary units.

[4] = test system: proteasome of the recombinant yeast cells (CYS344 strain, mAG-p21[6KR]^WAF1/Cip1 fusion protein); experiment: Degradation of mAG-p21[6KR]WAF1/Cip1 fusion protein in CYS344 yeast cells, immunoblotting (Western blotting); settings: 50 μM MG132 added with 2% glucose after 120 minutes galactose, 30, 60 and 120 minutes after glucose
Procedure: as §2, §3, §4, §5
The results are given on FIG. 3 (FIG. 3A and FIG. 3B). FIG. 3A illustrates the results obtained with the CYS344 recombinant yeast strain.
Total proteins were prepared before adding galactose (0), 60 and 120 minutes following the addition of galactose (+galactose 0, 60, 120) and 30, 60 and 120 minutes (+glucose, 30, 60, 120) following the addition of glucose.
as §6, §7

[5] = test system: proteasome of yeast cells (CYS343 strain, mAG-p21^WAF1/Cip1 fusion protein); experiment: Flow cytometric quantification (FACS) of fluorescence of mAG-p21WAF1/Cip1 fusion protein in CYS343 yeast cells; settings: 50 μM MG132 added with 2% glucose after 120 minutes galactose, time D1h, D2h, D3h
Procedure: as §8, §9, §1, §10

CC(C)C[C@@H](C=O)NC(=O)[C@H](CC(C)C)NC(=O)[C@H](CC(C)C)NC(=O)OCc1ccccc1 [MG132] (Cbz-Leu-Leu-Leu-aldehyde)
fluorescence signal intensity of mAG-p21[6KR]WAF1/Cip1 fusion protein versus culture time (epifluorescence microscopy) [1]: fluorescence signal intensity versus culture time was maintained | degradation of the mAG-p21[wt]WAF1/Cip1 fusion protein (Western blotting) [2]: inhibit the degradation of the fusion protein | degradation of the mAG-p21[6KR]WAF1/Cip1 fusion protein (fluorescence, flow cytometry) [3]: strongly inhibited | degradation of the mAG-p21[6KR]WAF1/Cip1 fusion protein (Western blotting) [4]: inhibit the degradation of the fusion protein | degradation of the mAG-p21WAF1/Cip1 fusion protein (fluorescence, flow cytometry) [5]: strongly inhibited
